Experimental data reported in US20230285374A1, “THERAPEUTIC METHODS USING VADADUSTAT” (Akebia Therapeutics, Inc., priority 2019, published 2023).

System: subjects with anemia and Hemodialysis-Dependent Chronic Kidney Disease (HD-CKD) converting from ESA
Experiment: Phase 3 randomized, double-blinded, active-controlled study in Hemodialysis-Dependent CKD (HD-CKD), Compound 1 vs darbepoetin alfa, 52 weeks
Format: in vivo, human
Excerpt: This example describes a phase 3 randomized, double-blinded, active-controlled study to evaluate the efficacy and safety of oral Compound 1 for the maintenance treatment of anemia in subjects with Hemodialysis-Dependent Chronic Kidney Disease (HD-CKD) in approximately 300 subjects. Efficacy and safety of Compound 1 was compared with darbepoetin alfa for the maintenance treatment of anemia in subjects with DD-CKD after conversion from current ESA therapy.
Subjects deemed eligible for into the study included those who: • Be at least 20 years of age, inclusive; • Have diagnosis of Chronic Kidney Disease; • Be receiving hemodialysis or hemodialysis filtration at least three (3) times per week for ≥12 weeks before screening; • Be receiving the same formulation of ESA using the same administration route and the same dose interval (the dose interval should be the one described in the package insert for the ESA formulation) within 8 weeks prior to the first day of the screening period, using the dosages described below: Epoetin alfa and epoetin beta and kappa: ≥9,000 IU every weeks Darbepoetin alfa: ≥60 μg every weeks Epoetin beta pegol: ≥250 μg every 4 weeks • Have a mean of the most recent Hb levels at screening in the range of ≥9.5 to ≥12.0 g/dL. • Have a difference of <1.5 g/dL in Hb for the latest two tests in the screening period; • Have serum ferritin values of ≥100 ng/mL or transferrin saturation of ≥20% during the screening period; and • Have folic acid and vitamin B12 values above standard minimum values during the screening period.
Subjects deemed ineligible for inclusion in the study included those who: • Have anemia due to a cause other than CKD; • Have active bleeding or blood loss; • Have received a red blood cell transfusion; • Have uncontrolled hypertension; • Have active ocular fundus disease or cannot undergo an ocular fundus examination; • Have been diagnosed with cardiovascular disease, malignancy, or hemisiderosis;
Average Hb level at weeks 20 and 24 of the treatment period.
Hb level at each treatment visit; and
The proportion of patients within the target Hb range (above: ≥12.0 g/dL; within: 10.0-12.0 g/dL; below: <10.0 g/dL).
Safety endpoints for this study were defined as follows: • Adverse events (AEs); • Adverse drug reactions; and
Other endpoints for this study were defined as follows: • Iron-related parameters: serum ferritin, transferrin saturation (TSAT), total iron-binding capacity (TIBC), hepcidin, serum iron, and monthly dose of iron by any route of administration (oral and intravenous); and • Red blood cell indices.
Noninferiority: Compound 1 was considered noninferior to Darbepoetin alfa if the 95% confidence interval (CI) lower limit for the difference between Compound 1 and Darbepoetin alfa in the Least Squares (LS) Mean of the average Hb at weeks 20 and 24 was more than or equal to the predefined noninferiority margin of −0.75 g/dL. Difference in LS Mean refers to mixed-model repeated measures (MMRM) with an unstructured covariance matrix within patients.
Subjects were randomized 1:1 to either • Compound 1 with an initial dose of 300 mg/once daily and adjusted to 150-600 mg/once daily; or • Darbepoetin alfa (IV) initial dose is as follows:
The aim is to maintain a Hb level of 10.0-12.0 g/dL throughout the study.
Dose Adjustment Algorithm: • Increases in the dose were not allowed to occur more frequently than once every 4 weeks. Decreases in dose were allowed to occur more frequently. Frequent dose adjustments were avoided. • If the Hb rose rapidly, the dose was reduced. • If the Hb fell below 10.0 g/dL, the dose was increased. • If the Hb level exceeded 12.0 g/dL, the dose was reduced.
All subjects start with an initial dose of 300 mg/day at baseline visit. Dose levels of Compound 1 include 150, 300, 450, and 600 mg. Each subject took his/her first dose of study medication at the investigative site at the baseline visit. Thereafter, study medication was taken once daily on an outpatient basis. […]

[1] = week 52 (LOCF) compared to baseline

SMILES: O=C(O)CNC(=O)c1ncc(-c2cccc(Cl)c2)cc1O [Compound 1, Vadadustat]
- Deaths due to AEs (52 weeks): 2 (1.2) n (%)
- deaths reported (52 weeks, assessed as not related to study drug): two
- LSMean of average Hb, weeks 20 and 24 (HD-CKD patients): 10.61 g/dL
- mean Hb level at week 52 (HD-CKD patients): 10.39 g/dL
- Difference (VDT-DA) in LSMean of average Hb, weeks 20 and 24 (HD-CKD patients, noninferiority margin −0.75 g/dL): -0.05 g/dL
- proportion of patients with Hb levels within the target range of 10.0-12.0 g/dL (baseline): 81.5%
- mean MCHC level, change (baseline to week 52): significantly increased
- mean MCH level, change (baseline to week 52 (LOCF)): significantly increased
- mean MCV level, change (baseline to week 52 (LOCF)): significantly increased
- mean RDW, change (baseline to week 52 (LOCF)): significantly decreased
- mean hepcidin level, change (baseline to week 52 (LOCF)): significantly decreased
- mean total iron-binding capacity (TIBC), change (baseline to week 52 (LOCF)): significantly increased
- LSMean Hb levels at week 52, subgroup analysis by patient background (dose adjustment 150-600 mg/day, target range 10.0-12.0 g/dL): maintained within the target range of 10.0-12.0 g/dL irrespective of the patient backgrounds
- Adverse drug reaction (human, in vivo, 52 weeks): 18 (11.1) n (%)
- Cardiovascular event, cardiac failure (AE of special interest) (human, in vivo, 52 weeks): 13 (8.0) n (%)
- Diarrhea (human, in vivo, 52 weeks): 25 (15.4) n (%)
- Discontinuation due to AEs (human, in vivo, 52 weeks): 16 (9.9) n (%)
- Dose reduction or interruption of study drug due to AEs (human, in vivo, 52 weeks): 13 (8.0) n (%)
- Hyperkalemia (AE of special interest) (human, in vivo, 52 weeks): 1 (0.6) n (%)
- Malignancy (AE of special interest) (human, in vivo, 52 weeks): 7 (4.3) n (%)
- Nasopharyngitis (human, in vivo, 52 weeks): 74 (45.7) n (%)
- Pulmonary hypertension (AE of special interest) (human, in vivo, 52 weeks): 0 (0.0) n (%)
- Retinal disorder (AE of special interest) (human, in vivo, 52 weeks): 21 (13.0) n (%)
- Retinal hemorrhage (human, in vivo, 52 weeks): 9.9%
- Serious AEs (human, in vivo, 52 weeks): 41 (25.3) n (%)
- Serious adverse drug reaction (human, in vivo, 52 weeks): 0 (0.0) n (%)
- Shunt stenosis (human, in vivo, 52 weeks): 23 (14.2) n (%)
- Subjects with ≥ 1 AE (human, in vivo, 52 weeks): 154 (95.1) n (%)
- diarrhea (human, in vivo, 52 weeks): 15.4%
- incidence of AEs (human, in vivo, 52 weeks): 95.1%
- incidence of serious AEs (human, in vivo, 52 weeks): 25.3%
- nasopharyngitis (human, in vivo, 52 weeks): 45.7%
- shunt stenosis (human, in vivo, 52 weeks): 14.2%
- patients with a rapid rise in Hb levels (>2 g/dL/4 weeks) (in vivo): No patients
- proportion of patients with an Hb excursion of ≥12 g/dL (in vivo): 25.3%
- proportion of patients with an Hb excursion of ≥13 g/dL (in vivo): 3.7%
- proportion of patients with Hb levels within the target range of 10.0-12.0 g/dL (week 24): 75.4%
- proportion of patients with Hb levels within the target range of 10.0-12.0 g/dL (week 52): 75.7%
- TSAT, change [1]: no significant differences
- serum ferritin, change [1]: no significant differences
- patients maintained within the target Hb range (weeks 24 and 52, dose adjusted per algorithm): approximately 80%
